Reference: patent US20240166687A1, “REGULATORY T CELL-INDUCING PEPTIDE AND COMPOSITION INCLUDING SAME FOR PREVENTING OR TREATING AUTOIMMUNE DISEASE” (IUCF-HYU (INDUSTRY-UNIVERSITY COOPERATION FOUNDATION …, priority 2021, published 2024)
Entries after “also recorded” stand apart in the source; their conditions may differ.

B1: KIKKVKKKGRKGSKIKKVKKKGRKGGKMLKKRSPLTTGVYVKMAATEAECEKQFQPYFIPIN (peptide)
chain: KIKKVKKKGRKGSKIKKVKKKGRKGGKMLKKRSPLTTGVYVKMAATEAECEKQFQPYFIPIN
notes: dNP2-ctCTLA-4 variant

Assays:
[1] = test system: multiple sclerosis animal model; assay: Analysis of efficiency in multiple sclerosis (MS) animal model (MOG35-55/CFA + PTX); type: in vivo, C57BL/6 mice; conditions: for clinical symptoms (clinical score): 100 μg (5 mg/kg) intraperitoneally once a day from day 7 after PTX; for clinical symptoms (clinical score) / number of infiltrated lymphocytes in the spinal cord / number of Treg cells (spinal cord): comparator as named in the value; for number of infiltrated lymphocytes in the spinal cord / number of Treg cells (spinal cord): 100 μg intraperitoneally once a day from day 7
Description: 8-week-old female C57BL/6 mice were purchased from Orient Bio (Daejeon, Korea). All animal experiments were conducted in compliance with the animal experiment operation regulations of the Institutional Animal Care and Use Committee of Hanyang University. The mice were acclimatized for 2 weeks before the experiment. The mice were raised in a breeding room maintained at temperature 22±2° C. and 40-60% humidity with free access to feed. The light and dark cycles were adjusted at 12-hour intervals. Multiple sclerosis was induced by subcutaneous immunization using a MOG35-55/CFA emulsion PTX kit (Hooke Labs, Lawrence, MA, USA) according to the manufacturer's protocol. The mice were anesthetized with isoflurane and MOG35-55/CFA was subcutaneously injected bilaterally, followed by intraperitoneal injection of PTX (pertussis toxin) 2 hours and 24 hours later. The mice were randomly assigned to different groups after MOG immunization. Because paralysis due to immune response begins on day 7 after the injection of PTX, 100 μg (5 mg/kg) of the samples according to the present disclosure were intraperitoneally injected to the groups once a day from day 7. Each group was monitored every day after inducing multiple sclerosis and clinical symptoms were recorded. The clinical symptoms were evaluated based on the scoring system described in Table 2. The higher clinical scores indicate severer symptoms. The mice were euthanized at the end of the experiments and lymphocytes were isolated from the spinal cords. The isolated spinal cords were treated at 37° C. with 1 mg/mL of DNase 1 (10104159001; Sigma-Aldrich) and 1 mg/mL of collagenase D (11088866001; Sigma-Aldrich) and incubated at 80 rpm on a shaker for 40 minutes. After the enzyme treatment, 500 mM EDTA was added and lymphocytes were isolated by Percoll (GE Healthcare, Little Chalfont, UK) density-gradient centrifugation. The isolated infiltrated lymphocytes were restimulated with a cell stimulation cocktail (plus protein transport inhibitors) (ThermoFisher) at 37° C. for 4 hours and stained with anti-mouse CD4. The cells were fixed, permeabilized using a Foxp3/transcription factor staining buffer set (eBioscience) and stained with anti-mouse IFN-γ, anti-mouse IL-17 or anti-mouse Foxp3. The cells were analyzed using a FACS Canto flow cytometer and the FlowJo software version 10.7.1. For histological analysis, paraffin blocks of the spinal cord tissues were deparaffinized and treated with luxol fast blue. For combination staining, hematoxylin and eosin were used (Dako). The cells infiltrated in the white matter region of the spinal cord tissues were counted using the Image J software version 2.0.0. The increased number of Th1 and Th17 immune cells in the spinal cord means more severe multiple sclerosis, and the increased number of Treg cells means that the function of preventing or treating autoimmune disease such as multiple sclerosis is improved as the tolerance to self-antigens is maintained and the excessive response by the immune system is prevented.

[2] = test system: Th17 cells differentiated from splenocytes isolated from mouse; assay: Analysis of effect under Th17 differentiation conditions (flow cytometry of IL-17A and Foxp3); type: cell-based; conditions: sample 2 μM; for effect of suppressing immune response (decrease of IL-17 and increase of Foxp3): flow cytometry 4 days later, comparator as named in the value (Th17/PBS control, K1, AP-K2); for effect of suppressing immune response compared to the dNP2-ctCTLA-4 group / order of the reduction of IL-17 and the increase of Foxp3 among AP-K2 variants: 4 days; for effect of suppressing immune response compared to the dNP2-ctCTLA-4 group: versus dNP2-ctCTLA-4 positive control
Text: Th17 cells are a subset of CD4 T cells. The Th17 cells are known to secrete a cytokine known as IL-17 and cause inflammation. This is the major cause of autoimmune disease. And, Treg cells (regulatory T cells) are known to suppress and regulate inflammation by expressing the transcription factor called Foxp3. Accordingly, since it is thought that the effect of preventing and treating autoimmune disease may be achieved by regulating inflammation by inhibiting Th17 cells (IL-17) and increasing Treg (Foxp3) cells, the effect of the peptides of the present disclosure was investigated.
Undifferentiated CD4 T cells (naive CD4 T cells) were isolated from splenocytes of 6- to 8-week-old C57BL/6 mice using a mouse undifferentiated CD4+ T cell (naive CD4 T cell) isolation kit (Miltenyi Biotec, Auburn, CA, USA) according to the manufacturer's protocols. For RNAseq, the undifferentiated CD4 T cells (naive CD4 T cells) from the Foxp3-GFP mice were purified, differentiated into Th17 cells and sorted into Foxp3^+ and Foxp3^− populations using a cell sorter (FACS Aria cell sorter BD Biosciences, Franklin Lakes, NJ, USA). The purified undifferentiated CD4 T cells (naive CD4 T cells) were activated with plate-bound anti-CD3 (2 or 5 μg/mL, 553057; BD Pharmingen, La Jolla, CA) and anti-CD28 (2 or 5 μg/mL, 553294; BD Pharmingen, La Jolla, CA) antibodies and differentiated by treating with the following cytokine cocktails in a 96-well plate for 3 or 4 days: Th0; recombinant human TGF-β(R&D Systems) 0.25 ng/mL. Th1; anti-IL-4 (11B11; 16-7041-85; eBioscience) 5 μg/mL, IL-2 (212-12; Peprotech, Rocky Hill, NJ) 50 U/mL, recombinant murine IL-12 (212-12; Peprotech) 2 ng/mL, recombinant human TGF-β (R&D Systems) for Th1 0.25 ng/mL. Th17; anti-IFN-γ (XMG1.2; 16-7311-85; eBioscience) 5 μg/mL, anti-IL-4 (11B11; 16-7041-85; eBioscience) 5 μg/mL, recombinant murine TGF-β (7666-MB, R&D Systems, Minneapolis, MN) 2 ng/mL, IL-6 (216-16; Peprotech) 30 ng/mL, IL-23 (1887-ML-101; R&D Systems) 20 ng/mL, IL-1β (401-ML-010; R&D Systems) 20 ng/mL, and IL-2 (Peprotech) 50 U/mL. Treg; IL-2 (Peprotech) 50 U/mL and TGF-β (R&D Systems) 0.5 ng/mL.
The cells were cotreated with the cytokine cocktails and the samples (2 μM). 4 days later, they were analyzed by flow cytometry using IL-17 and Foxp3 fluorescent antibodies. In some experiments, 5 μM PKC-η pseudosubstrate inhibitor (sc-3096; Santa Cruz) or 5 μM ERK inhibitor (UO126, 662005; Sigma) were also added.
For flow cytometric analysis of living cells only, dead cells were excluded using the Zombie Aqua™ fixable viability kit (Biolegend) before staining with antibodies at room temperature for 10 minutes. After washing, surface proteins of the differentiated Th1, Th17 and Treg cells were stained with monoclonal antibodies at 4° C. for 15 minutes. To determine intracellular cytokine levels, the cells were restimulated with a cell stimulation cocktail (plus protein transport inhibitors) (ThermoFisher) at 37° C. for 4 hours and then stained with surface marker antibodies. The cells were then fixed, permeabilized using a Foxp3/transcription factor staining buffer set (eBioscience) and stained with anti-mouse IFN-γ, anti-mouse IL-17 and anti-mouse Foxp3. The cells were analyzed using a FACS Canto II flow cytometer and the FlowJo software version 10.7.

| Molecule | number of infiltrated lymphocytes in the spinal cord [1] | effect of suppressing immune response (decrease of IL-17 and increase of Foxp3) [2] | further results |
| --- | --- | --- | --- |
| KIKKVKKKGRKGSKIKKVKKKGRKGGKMLKKRSPLTTGVYVKM (dNP2-KSY) [deleted variant of dNP2-ctCTLA-4] | significantly smaller number of infiltrated lymphocytes in the spinal cord as compared to the TAT-ctCTLA-4 group and the PBS group | – | clinical symptoms (clinical score) [1]: significantly superior in terms of clinical symptoms as compared to the TAT-ctCTLA-4 group and the PBS group |
| KIKKVKKKGRKGSKIKKVKKKGRKKMLKKRS (dNP2-K1) [deleted variant of dNP2-ctCTLA-4 with only the K motif] | significantly smaller number of infiltrated lymphocytes in the spinal cord as compared to the TAT-ctCTLA-4 group and the PBS group | exhibited the activity of inhibiting immune response | – |
| KMLKKRS (K1) [Example K1, single K motif of CTLA4 without CPP, fatty acid or linker] | – | did not show significant difference from Th17 (control group) | effect in the multiple sclerosis animal model (overall) ([1]; 100 μg intraperitoneally once a day from day 7 to day 18): does not show significant effect on its own in the multiple sclerosis animal model |
| KMLKKRSGGGGSKMLKKRS (K2(G4S)) [K2 (G4S)] | significantly number of infiltrated lymphocytes in the spinal cord as compared to the K1 group | the activity of inhibiting immune cells is significantly superior | clinical symptoms (clinical score) [1]: significantly remarkable superior result in clinical symptoms than the K1 group; number of Treg cells (spinal cord) [1]: larger number of Treg cells than the K1 group |
| KMLKKRSKMLKKRS (K2) [Example K2, two K motifs of CTLA4 linked, no linker] | significantly smaller number of infiltrated lymphocytes in the spinal cord than the PBS (control group) | significantly better effect of suppressing immune response than the PBS (control group); also recorded: significantly superior effect of suppressing immune response as compared to the PBS group | effect of suppressing immune response compared to the dNP2-ctCTLA-4 group [2]: comparable effect; clinical symptoms (clinical score) [1]: significantly improved result for clinical symptoms as compared to the PBS group |
| KMLKKRSKMLKKRSKMLKKRS (K3) [Example K3] | significantly number of infiltrated lymphocytes in the spinal cord as compared to the K1 group | significantly better effect of suppressing immune response than the PBS (control group); also recorded: significantly superior effect of suppressing immune response as compared to the PBS group | effect of suppressing immune response compared to the dNP2-ctCTLA-4 group [2]: comparable effect; effect of suppressing immune response (decrease of IL-17 and increase of Foxp3) ([2]; listed as Example 4): the activity of inhibiting immune cells is significantly superior; clinical symptoms (clinical score) [1]: significantly remarkable superior result in clinical symptoms than the K1 group; number of Treg cells (spinal cord) [1]: larger number of Treg cells than the K1 group |
| PPTEPECE (P) [motif of CTLA4] | – | did not show significant difference from the dNP2 group or the Th17 group | – |
| RRRWCKRRRGGAMLAAASAMLAAAS (AP-K2 KA) [negative control, lysine and arginine residues of AP-K2 replaced with alanine] | – | decreased slightly | – |
| RRRWCKRRRGGAMLKKRSAMLKKRS (AP-K2 1KA) | – | decreased significantly | – |
| RRRWCKRRRGGKALKKRSKALKKRS (AP-K2 MA) | – | – | order of the reduction of IL-17 and the increase of Foxp3 among AP-K2 variants [2]: in the order of the AP-K2 SA group, the AP-K2 2KA group, the AP-K2 3KA group and the AP-K2 MA group |
| RRRWCKRRRGGKMAKKRSKMAKKRS (AP-K2 LA) | – | slightly decreased function of AP-L2 | – |
| RRRWCKRRRGGKMLAKRSKMLAKRS (AP-K2 2KA) | – | – | order of the reduction of IL-17 and the increase of Foxp3 among AP-K2 variants [2]: in the order of the AP-K2 SA group, the AP-K2 2KA group, the AP-K2 3KA group and the AP-K2 MA group |
| RRRWCKRRRGGKMLKARSKMLKARS (AP-K2 3KA) | – | – | order of the reduction of IL-17 and the increase of Foxp3 among AP-K2 variants [2]: in the order of the AP-K2 SA group, the AP-K2 2KA group, the AP-K2 3KA group and the AP-K2 MA group |
| RRRWCKRRRGGKMLKKASKMLKKAS (AP-K2 RA) | – | decreased significantly | – |
| RRRWCKRRRGGKMLKKRAKMLKKRA (AP-K2 SA) | – | – | order of the reduction of IL-17 and the increase of Foxp3 among AP-K2 variants [2]: in the order of the AP-K2 SA group, the AP-K2 2KA group, the AP-K2 3KA group and the AP-K2 MA group |
| SPLTTGV (S) [motif of CTLA4] | – | did not show significant difference from the dNP2 group or the Th17 group | – |
| YFIPIN (Y2) [Example Y2, motif of CTLA4] | – | did not show significant difference from the dNP2 group or the Th17 group | – |
| YVKM (Y1) [Example Y1, motif of CTLA4] | – | did not show significant difference from the dNP2 group or the Th17 group | – |
| B1 | significantly larger number of infiltrated lymphocytes in the spinal cord as compared to the PBS group | – | clinical symptoms (clinical score) [1]: significantly lower clinical symptoms as compared to the PBS group |
